From US10238641B2, “Materials and methods for diagnosis, prevention and/or treatment of stress disorders and conditions associated with A-beta peptide aggregation” (The United States of America as represented by the …, priority 2008, dated 2019)

How the values were obtained:
[1] = system: phospho-CREB (Serine 133); assay: BDNF-stimulated phosphorylation of CREB after Aβ exposure, Western blot; assay type: cell-based, rat; details: 5 μM Aβ1-42 + 10 μM cotinine 5 h, then BDNF 1 h
Protocol: Western blot analysis of the BDNF-stimulated phosphorylation of CREB in extracts of cortical cells. Cells were exposed to vehicle, 5 μM Aβ alone or 5 μM Aβ plus 10 μM cotinine for 5 hours, then to BDNF (50 ng/ml) for 1 hour and analyzed for CREB by western blot (FIG. 6B). The histogram (FIG. 6A) represents the levels of phospho-CREB (Ser133) normalized against β-Tubulin used as a control of protein loading. The values represent significant (*) difference with P<0.05.
Rat embryonic cortical cells were cultured in 24-well plates (0.3×10^6 cells/well) for 7 days, washed with PBS, collected and disrupted by sonication in ice-cold cell lysis buffer containing (20 mM Tris (pH 7.4), 150 mM NaCl, 1 mM ethylenediaminetetraacetic acid (EDTA), 1 mM egtazic acid (EGTA), 1% triton, 2.5 mM Na pyrophosphate, 1 mM β-glycerophosphate, 1 mM Na orthovanadate, 1 μg/ml leupeptin) (Cell Signaling Technology, Beverly, Mass., USA), 1 mM phenylmethylsulfonyl fluoride (PMSF) (Sigma) complete protease inhibitor cocktail (Roche Molecular Biochemicals, Indianapolis, Ind., USA). […] Protein concentration of supernatants was measured by Bio-Rad protein assay (Bio-Rad, Hercules, Calif., USA), and equal amounts of protein were separated by gradient (4-20%) SDS-PAGE and transferred to nitrocellulose membranes (BA83 0.2 μm; Bio-Rad). […]

fear memory in mice = assay: Contextual fear conditioning, freezing behavior; assay type: in vivo
Protocol: Mice (n=8, by condition) were treated with vehicle or cotinine (1 and 5 mg/kg/day) for 8 days and then subjected to Fear conditioning training as described. After 24 hours (h) mice were tested for freezing behavior when re-exposed to the same context (the chamber) every day for […].
To study the effect of cotinine on contextual fear memory, we pretreated mice with vehicle or cotinine at 1 and 5 mg/kg/day for 8 days. After this time, mice were trained for contextual fear conditioning (FC). Briefly, mice were trained to associate the context (the chamber) with an aversive unconditioned stimulus (1 mA foot shock for 2 seconds). After the FC training, the mice were re-exposed to the context every day for 7 consecutive days. The mice were treated daily with vehicle or cotinine at 1 and 5 mg/kg during the FC training and re-exposure to the context. The fear memory of the mice expressed as freezing behavior was assessed each day after re-exposure to the context. The fear memory after 24 h of the FC training is considered a measure of retention of the fear memory. The reduction of fear memory expressed as a reduction in the freezing behavior after the retention trial is evaluated as the extinction of the fear memory.

[2] = system: sensorimotor abilities in mice; assay: Open field activity test; assay type: in vivo; details: data not shown
Aβ1-42 peptide = biological target: T1, Aβ1-42 peptide (Homo sapiens, UniProt P05067); assay: AFM analysis of Aβ1-42 fibrillation; assay type: biochemical
T1 construct: Aβ1-42 peptide was obtained from American Peptide; purchased American Peptide (Sunnyvale, Calif., USA)
Protocol: Since the aggregation behavior of Aβ is dependent on the presence of small concentrations of aggregated forms of the peptide, that are present in many commercial samples, we prepared the Aβ solution by first dissolving the peptide in Hexafluoroisopropanol (HFIP), a protocol that produces a starting solution constituted only of Aβ monomers (Chromy et al. (2003)). Lyophillized Aβ1-42 (American peptide) (1 mg) was dissolved in HFIP, evaporated and re-dissolved in 22 μl of dimethyl sulfoxide (DMSO, St. Louis, Mo.). These peptide preparations were then diluted in PBS buffer pH 7.4 alone or PBS plus cotinine to obtain solutions containing 1 mM Aβ1-42 with and without 2 mM cotinine. Then the Aβ1-42 solutions were incubated for 10 days and the formation of oligomers and fibers was examined.
20 μl aliquots of Aβ solutions were deposited on freshly cleaned and dried silicon wafers (approximately 1 mm thick). After waiting for 10 min, non-adsorbed portions of the samples were washed with de-ionized water (2000 μl). The wet surface of the silicon wafer was then dried using gentle flow of air.
The AFM analysis was performed using an AFM apparatus (AFM, βA multimode SPM, Model no. 920-006-101, Vecco) that permits the acquisition of images using a tapping mode approach. This approach allows intermittent contact of the tip with the sample and minimizes the chances of deformation of the peptide samples. The cantilever and the tip were made up of silicon and the cantilever force constant was approximately 20-100 N/m with the resonance frequency between 200-400 khz. The scan rate was between 1.0 to 1.2 Hz. The analysis of fibrils and oligomers was performed using the software NanoScope Control, version 5.30.
To investigate whether cotinine in addition to Aβ oligomerization also affected fibril formation, we used Atomic force miscroscopy (AFM) to analyze Aβ aggregation. The solutions were prepared dissolving Aβ in HFIP and after evaporation, in PBS alone or containing cotinine and incubated at 37° C. for 3 and 10 days.

T1 sequence (P05067 672-713 limits assumed): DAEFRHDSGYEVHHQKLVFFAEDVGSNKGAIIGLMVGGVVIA

CN1C(=O)CC[C@H]1c1cccnc1 [cotinine]
increase of phosphoCREB versus cells treated with BDNF plus Aβ1-42 [1]: 34% | phosphoCREB level relative to control cells [1]: indistinguishable from the control cell values | freezing in the retention test versus vehicle (fear memory in mice; cotinine 1 mg/kg/day, 24 h after FC training, p=0.0191): significantly lower percentage of freezing | freezing in the extinction test versus vehicle (fear memory in mice; cotinine 5 mg/kg, day 6 of re-exposure, p=0.0218): significantly lower percentage of freezing | sensorimotor abilities (open field activity test) [2]: no changes in sensorimotor abilities were detected | effect on Aβ aggregation and fibril length (AFM) (Aβ1-42 peptide; 1 mM Aβ1-42 + 2 mM cotinine, 10 days 37° C.): reduced Aβ aggregation and the length of Aβ fibrils | average length of Aβ fibrils (Aβ1-42 peptide; 1 mM Aβ1-42 + 2 mM cotinine, 10 days 37° C., n=23, without cotinine 345±42): 223±36 | average diameter of the fibers (Aβ1-42 peptide; unchanged by presence of cotinine): 22-24 nm
